From patent US20130217702A1 (Richter Gedeon Nyrt., priority 2010, published 2013)

Experiments:
[1] = target: T1, recombinant human B1 receptors (Homo sapiens, UniProt P46663); assay: Functional assay: antagonist potency by cytosolic calcium measurement (plate reader fluorimeter) in CHO-B1 cells, agonist LysDABK; type: cell-based; settings: CHO-B1 cells, inhibition of LysDABK (EC80)-evoked [Ca2+]i elevation; read-out: B1 func.
T1 construct: host or cells: CHO (CHO-B1)
T1 sequence (P46663 1-353): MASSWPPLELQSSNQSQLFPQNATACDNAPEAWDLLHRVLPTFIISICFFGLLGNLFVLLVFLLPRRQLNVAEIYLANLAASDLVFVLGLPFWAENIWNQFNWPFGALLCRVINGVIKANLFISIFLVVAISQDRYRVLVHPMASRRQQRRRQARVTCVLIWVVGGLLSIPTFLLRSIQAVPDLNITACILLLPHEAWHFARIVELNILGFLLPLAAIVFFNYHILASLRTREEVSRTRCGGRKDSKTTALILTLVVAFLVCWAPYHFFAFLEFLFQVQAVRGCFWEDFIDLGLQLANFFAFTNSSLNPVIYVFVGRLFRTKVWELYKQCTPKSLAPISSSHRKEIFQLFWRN
Procedure, shortened: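 IC50 is the concentration giving half-maximal inhibition of the LysDABK (EC80) calcium response, fitted from at least three experiments. CHO cells stably expressing human B1 were dye-loaded, exposed to compound for 20-25 min, then read by fluo-4 fluorescence (ΔF/F) at 37 °C.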

[2] = target: T2, human recombinant bradykinin B1 receptor (Homo sapiens, UniProt P46663); assay: Human recombinant bradykinin B1 receptor competitive radioligand binding; settings: hB1 expressed in CHO cells, [3H]-[Des-Arg10] Kallidin radioligand; read-out: B1 binding
T2 construct: host or cells: CHO cells, clone hB1-A5
T2 sequence (P46663 1-353): T1 sequence (P46663 1-353)
Procedure, shortened: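 Competition radioligand binding on CHO-expressed hB1 membranes, using [3,4-prolyl-3,4-^3H(N)]-[Des-Arg^10] Kallidin as tracer, 15 min at 25° C. Excess Lys-des-Arg^9-Bradykinin (10 μM) set nonspecific binding. Sigmoidal fits of at least seven concentrations gave IC50, converted to Ki via Cheng-Prusoff; KD from Scatchard.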

Row | Compound | IC50 [1] | Ki [2]
1 | Cc1nc(-c2c(Cl)c3ccccc3n2-c2ccc(CNC(=O)C3(NC(=O)C4CNC(=O)N4)CC3)cc2)no1 (stereo not drawn) [Example 122, 2-Oxo-imidazolidine-4-carboxylic acid (1-{4-[3-chloro-2-(5-methyl-[1,2,4]oxadiazol-3-yl)-indol-1-yl]-benzylcarbamoyl}-cyclopropyl)-amide] | 20 to 100 nM | 20 to 100 nM
2 | CCc1cc(C(=O)NC2(C(=O)NCc3ccc(-n4c(-c5noc(C)n5)c(Cl)c5ccccc54)cc3)CC2)on1 [Example 123, 3-Ethyl-isoxazole-5-carboxylic acid (1-{4-[3-chloro-2-(5-methyl-[1,2,4]oxadiazol-3-yl)-indol-1-yl]-benzylcarbamoyl}-cyclopropyl)-amide] | < 20 nM | < 20 nM
3 | COc1ccc2c(c1)cc(-c1nnc(C)o1)n2-c1ccc(CNC(=O)C2(NC(=O)CC(F)(F)F)CC2)cc1 [Example 124, 1-(3,3,3-Trifluoro-propionylamino)-cyclopropanecarboxylic acid 4-[5-methoxy-2-(5-methyl-[1,3,4]oxadiazol-2-yl)-indol-1-yl]-benzylamide] | 20 to 100 nM | 20 to 100 nM
4 | COc1ccc2c(c1)cc(-c1nnc(C)o1)n2-c1ccc(CNC(=O)C2(NC(=O)c3cncc(C(F)(F)F)c3)CC2)cc1 [Example 125, N-(1-{4-[5-Methoxy-2-(5-methyl-[1,3,4]oxadiazol-2-yl)-indol-1-yl]-benzylcarbamoyl}-cyclopropyl)-5-trifluoromethyl-nicotinamide] | < 20 nM | < 20 nM
5 | COc1ccc2c(c1)cc(-c1nnc(C)o1)n2-c1ccc(CNC(=O)C2(NC(=O)c3cc(OC)no3)CC2)cc1 [Example 126, 3-Methoxy-isoxazole-5-carboxylic acid (1-{4-[5-methoxy-2-(5-methyl-[1,3,4]oxadiazol-2-yl)-indol-1-yl]-benzylcarbamoyl}-cyclopropyl)-amide] | 20 to 100 nM | < 20 nM
6 | Cc1nc(-c2cc3cc(Cl)ccc3n2-c2ccc(CNC(=O)C3(NC(=O)CC(F)(F)F)CC3)cc2)no1 [Example 127, 1-(3,3,3-Trifluoro-propionylamino)-cyclopropanecarboxylic acid 4-[5-chloro-2-(5-methyl-[1,2,4]oxadiazol-3-yl)-indol-1-yl]-benzylamide] | < 20 nM | < 20 nM
7 | Cc1nc(-c2cc3cc(Cl)ccc3n2-c2ccc(CNC(=O)C3(NC(=O)c4cncc(C(F)(F)F)c4)CC3)cc2)no1 [Example 128, N-(1-{4-[5-Chloro-2-(5-methyl-[1,2,4]oxadiazol-3-yl)-indol-1-yl]-benzylcarbamoyl}-cyclopropyl)-5-trifluoromethyl-nicotinamide] | < 20 nM | < 20 nM
8 | COc1ccc2c(c1)c(Cl)c(-c1noc(C)n1)n2-c1ccc(CNC(=O)C2(NC(=O)c3cnc(C)cn3)CC2)cc1 [Example 129, 5-Methyl-pyrazine-2-carboxylic acid (1-{4-[3-chloro-5-methoxy-2-(5-methyl-[1,2,4]oxadiazol-3-yl)-indol-1-yl]-benzylcarbamoyl}-cyclopropyl)-amide] | < 20 nM | < 20 nM
9 | COc1ccc2c(c1)c(Cl)c(-c1noc(C)n1)n2-c1ccc(CNC(=O)C2(NC(=O)c3cncc(C(F)(F)F)c3)CC2)cc1 [Example 130, N-(1-{4-[3-Chloro-5-methoxy-2-(5-methyl-[1,2,4]oxadiazol-3-yl)-indol-1-yl]-benzylcarbamoyl}-cyclopropyl)-5-trifluoromethyl-nicotinamide] | < 20 nM | < 20 nM
10 | Cc1cnc(C(=O)NC2(C(=O)NCc3ccc(-n4c(-c5noc(C)n5)cc5cc(F)ccc54)cc3F)CC2)cn1 [Example 131, 5-Methyl-pyrazine-2-carboxylic acid (1-{2-fluoro-4-[5-fluoro-2-(5-methyl-[1,2,4]oxadiazol-3-yl)-indol-1-yl]-benzylcarbamoyl}-cyclopropyl)-amide] | 20 to 100 nM | < 20 nM
11 | Cc1nc(-c2cc3cc(F)ccc3n2-c2ccc(CNC(=O)C3(NC(=O)c4cncc(C(F)(F)F)c4)CC3)c(F)c2)no1 [Example 132, N-(1-{2-Fluoro-4-[5-fluoro-2-(5-methyl-[1,2,4]oxadiazol-3-yl)-indol-1-yl]-benzylcarbamoyl}-cyclopropyl)-5-trifluoromethyl-nicotinamide] | < 20 nM | < 20 nM
12 | COc1cc(C(=O)NC2(C(=O)NCc3ccc(-n4c(-c5noc(C)n5)cc5cc(F)ccc54)cc3F)CC2)on1 [Example 133, 3-Methoxy-isoxazole-5-carboxylic acid (1-{2-fluoro-4-[5-fluoro-2-(5-methyl-[1,2,4]oxadiazol-3-yl)-indol-1-yl]-benzylcarbamoyl}-cyclopropyl)-amide] | < 20 nM | < 20 nM
13 | Cc1nc(-c2c(Cl)c3ccccc3n2-c2ccc(CNC(=O)C3(NC(=O)c4ccno4)CC3)cc2)no1 [Example 134, Isoxazole-5-carboxylic acid (1-{4-[3-chloro-2-(5-methyl-[1,2,4]oxadiazol-3-yl)-indol-1-yl]-benzylcarbamoyl}-cyclopropyl)-amide] | < 20 nM | < 20 nM
14 | Cc1cc(C(=O)NC2(C(=O)NCc3ccc(-n4c(-c5noc(C)n5)c(Cl)c5ccccc54)cc3)CC2)no1 [Example 135, 5-Methyl-isoxazole-3-carboxylic acid (1-{4-[3-chloro-2-(5-methyl-[1,2,4]oxadiazol-3-yl)-indol-1-yl]-benzylcarbamoyl}-cyclopropyl)-amide] | 20 to 100 nM | < 20 nM
15 | Cc1nc(-c2c(Cl)c3ccccc3n2-c2ccc(CNC(=O)C3(NC(=O)C4CCCO4)CC3)cc2)no1 (stereo not drawn) [Example 136, Tetrahydro-furan-2-carboxylic acid (1-{4-[3-chloro-2-(5-methyl-[1,2,4]oxadiazol-3-yl)-indol-1-yl]-benzylcarbamoyl}-cyclopropyl)-amide] | 20 to 100 nM | 20 to 100 nM
16 | Cc1nc(-c2c(Cl)c3ccccc3n2-c2ccc(CNC(=O)C3(NC(=O)c4ccoc4)CC3)cc2)no1 [Example 137, Furan-3-carboxylic acid (1-{4-[3-chloro-2-(5-methyl-[1,2,4]oxadiazol-3-yl)-indol-1-yl]-benzylcarbamoyl}-cyclopropyl)-amide] | < 20 nM | < 20 nM
17 | Cc1nc(-c2c(Cl)c3ccccc3n2-c2ccc(CNC(=O)C3(NC(=O)C4CC4C)CC3)cc2)no1 (stereo not drawn) [Example 138, 2-Methyl-cyclopropanecarboxylic acid (1-{4-[3-chloro-2-(5-methyl-[1,2,4]oxadiazol-3-yl)-indol-1-yl]-benzylcarbamoyl}-cyclopropyl)-amide] | 20 to 100 nM | < 20 nM
18 | C#CCCC(=O)NC1(C(=O)NCc2ccc(-n3c(-c4noc(C)n4)c(Cl)c4ccccc43)cc2)CC1 [Example 139, 1-Pent-4-ynoylamino-cyclopropanecarboxylic acid 4-[3-chloro-2-(5-methyl-[1,2,4]oxadiazol-3-yl)-indol-1-yl]-benzylamide] | < 20 nM | < 20 nM
19 | Cc1nc(-c2c(Cl)c3ccccc3n2-c2ccc(CNC(=O)C3(NC(=O)CCC(C)C)CC3)cc2)no1 [Example 140, 1-(4-Methyl-pentanoylamino)-cyclopropanecarboxylic acid 4-[3-chloro-2-(5-methyl-[1,2,4]oxadiazol-3-yl)-indol-1-yl]-benzylamide] | < 20 nM | < 20 nM
20 | Cc1nc(-c2c(Cl)c3ccccc3n2-c2ccc(CNC(=O)C3(NC(=O)c4cn[nH]c4)CC3)cc2)no1 [Example 141, 1H-Pyrazole-4-carboxylic acid (1-{4-[3-chloro-2-(5-methyl-[1,2,4]oxadiazol-3-yl)-indol-1-yl]-benzylcarbamoyl}-cyclopropyl)-amide] | < 20 nM | < 20 nM
21 | Cc1nc(-c2c(Cl)c3ccccc3n2-c2ccc(CNC(=O)C3(NC(=O)C4(C#N)CC4)CC3)cc2)no1 [Example 142, 1-Cyano-cyclopropanecarboxylic acid (1-{4-[3-chloro-2-(5-methyl-[1,2,4]oxadiazol-3-yl)-indol-1-yl]-benzylcarbamoyl}-cyclopropyl)-amide] | 20 to 100 nM | < 20 nM
22 | Cc1nc(-c2c(Cl)c3ccccc3n2-c2ccc(CNC(=O)C3(NC(=O)C4CCC4)CC3)cc2)no1 [Example 143, Cyclobutanecarboxylic acid (1-{4-[3-chloro-2-(5-methyl-[1,2,4]oxadiazol-3-yl)-indol-1-yl]-benzylcarbamoyl}-cyclopropyl)-amide] | < 20 nM | < 20 nM
23 | Cc1nc(-c2c(Cl)c3ccccc3n2-c2ccc(CNC(=O)C3(NC(=O)C4CCCC4)CC3)cc2)no1 [Example 144, Cyclopentanecarboxylic acid (1-{4-[3-chloro-2-(5-methyl-[1,2,4]oxadiazol-3-yl)-indol-1-yl]-benzylcarbamoyl}-cyclopropyl)-amide] | 20 to 100 nM | 20 to 100 nM
24 | Cc1nc(-c2c(Cl)c3ccccc3n2-c2ccc(CNC(=O)C3(NC(=O)c4ccco4)CC3)cc2)no1 [Example 145, Furan-2-carboxylic acid (1-{4-[3-chloro-2-(5-methyl-[1,2,4]oxadiazol-3-yl)-indol-1-yl]-benzylcarbamoyl}-cyclopropyl)-amide] | 20 to 100 nM | 20 to 100 nM
